Assay: solubility of the compound in common solvents
Type: physicochemical
Settings: 25-30° C.; for solubility in DMF: N,N-dimethylformamide; for solubility in i-PrOAc: isopropyl acetate; for solubility in MTBE: methyl tert-butyl ether
Procedure: The solubility of the compound of the present invention in common solvents was investigated (25-30° C.), and the results are shown in Table 1. It can be seen from Table 1 that the compound of the present invention has good solubility in all of heptane, isopropyl acetate (i-PrOAc), methyl tert-butyl ether (MTBE) and N,N-dimethylformamide (DMF), and particularly, the solubility in N,N-dimethylformamide is much higher than Comparative Examples.

## 4,4′-di(2-(2-(3,4,5-tris(2,3-dihydrophytoxy)-benzamido)-ethoxy)-ethoxy)-benzhydrylamine [DPA-004]
  solubility in DMSO: <1%
  solubility in MeOH: <1%
  solubility in DMF: >1%
  solubility in Heptane: >50%
  solubility in i-PrOAc: >100%
  solubility in MTBE: >100%

## 4,4′-di((5-(3,4,5-tris(isononyloxy)-benzamido)-2-one-3-aza-hexyl)oxy)-benzhydrylamine [DPA-009]
  solubility in DMSO: <1%
  solubility in MeOH: <1%
  solubility in DMF: >30%
  solubility in Heptane: >10%
  solubility in i-PrOAc: >25%
  solubility in MTBE: >30%

## 4-(2-(2-(3,4,5-tri(octa/decy/dodecyloxy)-benzamido)-ethoxy)-ethoxy)-benzhydrylamine [DPA-024]
  solubility in DMSO: <1%
  solubility in MeOH: <1%
  solubility in DMF: >30%
  solubility in Heptane: >50%
  solubility in i-PrOAc: >100%
  solubility in MTBE: >100%

## 4-(2-(2-(3,4,5-tris(isomeric decyloxy)-benzamido)-ethoxy)-ethoxy)-benzhydrylamine [DPA-006]
  solubility in DMSO: <1%
  solubility in MeOH: <1%
  solubility in DMF: >100%
  solubility in Heptane: >100%
  solubility in i-PrOAc: >100%
  solubility in MTBE: >100%

## CC(C)CCCCCOc1cc(C(=O)NCCOCCOc2ccc(C(N)c3ccc(OCCOCCNC(=O)c4cc(OCCCCCC(C)C)c(OCCCCCC(C)C)c(OCCCCCC(C)C)c4)cc3)cc2)cc(OCCCCCC(C)C)c1OCCCCCC(C)C [DPA-001, 4,4′-di(2-(2-(3,4,5-tris(isooctyloxy)-benzamido)-ethoxy)-ethoxy) benzhydrylamine]
  solubility in DMSO: <1%
  solubility in MeOH: <1%
  solubility in DMF: >20%
  solubility in Heptane: >25%
  solubility in i-PrOAc: >30%
  solubility in MTBE: >30%

## CCCCCCCCCCCCCOc1cc(C(=O)NCCOCCOc2ccc(C(N)c3ccc(OCCOCCNC(=O)c4cc(OCCCCCCCCCCCCC)c(OCCCCCCCCCCCCC)c(OCCCCCCCCCCCCC)c4)cc3)cc2)cc(OCCCCCCCCCCCCC)c1OCCCCCCCCCCCCC [DPA-003, 4,4′-di(2-(2-(3,4,5-tris(isomeric tridecyloxy)-benzamido)-ethoxy)-ethoxy)-benzhydrylamine]
  solubility in DMSO: <1%
  solubility in MeOH: <1%
  solubility in DMF: >20%
  solubility in Heptane: >50%
  solubility in i-PrOAc: >100%
  solubility in MTBE: >100%

## CCCCCCCCCCCCCOc1cc(C(=O)NCCOCCOc2ccc(C(N)c3ccccc3)cc2)cc(OCCCCCCCCCCCCC)c1OCCCCCCCCCCCCC (stereo not drawn) [DPA-007, 4-(2-(2-(3,4,5-tris(isomeric tridecyloxy)-benzamido)-ethoxy)-ethoxy)-benzhydrylamine]
  solubility in DMSO: <1%
  solubility in MeOH: <1%
  solubility in DMF: >100%
  solubility in Heptane: >100%
  solubility in i-PrOAc: >100%
  solubility in MTBE: >100%

## CC(C)CCCCCCOc1cc(C(=O)NCCOCCOc2ccc(C(N)c3ccc(Cl)cc3)cc2)cc(OCCCCCCC(C)C)c1OCCCCCCC(C)C (stereo not drawn) [DPA-011, 4-(2-(2-(3,4,5-tris(isononyloxy)-benzamido)-ethoxy)-ethoxy)-4′-chloro-benzhydrylamine]
  solubility in DMSO: <1%
  solubility in MeOH: <1%
  solubility in DMF: >150%
  solubility in Heptane: >100%
  solubility in i-PrOAc: >100%
  solubility in MTBE: >50%

## CCCCCCCCCCCCCOc1ccc(CC(=O)NCCOCCOc2ccc(C(N)c3ccccc3)cc2)cc1OCCCCCCCCCCCCC (stereo not drawn) [DPA-013, 4-(2-(2-(3,4-di(isomeric tridecyloxy)-phenylacetamido)-ethoxy)-ethoxy)-benzhydrylamine]
  solubility in DMSO: <1%
  solubility in MeOH: <1%
  solubility in DMF: >50%
  solubility in Heptane: >50%
  solubility in i-PrOAc: >70%
  solubility in MTBE: >50%

## CC(C)CCCCCCCCCCCCCCC(=O)NCCCCC(NC(=O)CCCCCCCCCCCCCCC(C)C)C(=O)NCCOCCOc1ccc(C(N)c2ccccc2)cc1 (stereo not drawn) [DPA-014, 4-(2-(2-(2,6-diisostearamido-hexanamido)-ethoxy)-ethoxy)-benzhydrylamine]
  solubility in DMSO: <10%
  solubility in MeOH: <10%
  solubility in DMF: >40%
  solubility in Heptane: >30%
  solubility in i-PrOAc: >50%
  solubility in MTBE: >50%

## CCCCCCCCCCCCCOc1cc(C(=O)NCCCC(=O)NCCOCCOc2ccc(C(N)c3ccccc3)cc2)cc(OCCCCCCCCCCCCC)c1OCCCCCCCCCCCCC (stereo not drawn) [DPA-015, 4-(2-(2-(4-(3,4,5-tri(isomeric tridecyloxy)-benzamido)-butyrylamido)-ethoxy)-ethoxy)-benzhydrylamine]
  solubility in DMSO: <1%
  solubility in MeOH: <1%
  solubility in DMF: >100%
  solubility in Heptane: >50%
  solubility in i-PrOAc: >100%
  solubility in MTBE: >100%

## CCCCCCCCCCCCCOc1cc(C(=O)NCCCCC(NC(=O)c2cc(OCCCCCCCCCCCCC)c(OCCCCCCCCCCCCC)c(OCCCCCCCCCCCCC)c2)C(=O)NCCOCCOc2ccc(C(N)c3ccccc3)cc2)cc(OCCCCCCCCCCCCC)c1OCCCCCCCCCCCCC (stereo not drawn) [DPA-017]
  solubility in DMSO: <5%
  solubility in MeOH: <5%
  solubility in DMF: >100%
  solubility in Heptane: >100%
  solubility in i-PrOAc: >100%
  solubility in MTBE: >100%

## CC(CCC(C(=O)NCCOCCOc1ccc(C(N)c2ccc(OCCOCCNC(=O)C(CCC(C)CC(C)(C)C)C(C)CC(C)(C)C)cc2)cc1)C(C)CC(C)(C)C)CC(C)(C)C (stereo not drawn) [DPA-018, 4,4′-di(2-(2-(isostearamido)-ethoxy)-ethoxy)-benzhydrylamine]
  solubility in DMSO: <5%
  solubility in MeOH: <10%
  solubility in DMF: >100%
  solubility in Heptane: >5%
  solubility in i-PrOAc: >100%
  solubility in MTBE: >100%

## CC(CCC(C(=O)N(CCOCCOc1ccc(C(N)c2ccccc2)cc1)Cc1ccccc1)C(C)CC(C)(C)C)CC(C)(C)C (stereo not drawn) [DPA-019]
  solubility in DMSO: <5%
  solubility in MeOH: <10%
  solubility in DMF: >50%
  solubility in Heptane: >50%
  solubility in i-PrOAc: >100%
  solubility in MTBE: >100%

## CC(CCC(C(=O)N(CCOCCOc1ccc(C(N)c2ccc(OCCOCCN(Cc3ccccc3)C(=O)C(CCC(C)CC(C)(C)C)C(C)CC(C)(C)C)cc2)cc1)Cc1ccccc1)C(C)CC(C)(C)C)CC(C)(C)C (stereo not drawn) [DPA-020]
  solubility in DMSO: <5%
  solubility in MeOH: <5%
  solubility in DMF: >100%
  solubility in Heptane: >100%
  solubility in i-PrOAc: >100%
  solubility in MTBE: >100%

## CCCCCCCCCCCCOc1cc(C(=O)NCCOCCOc2ccc(C(N)c3ccccc3)cc2)cc(OCCCCCCCCCCCC)c1OCCCCCCCCCCCC (stereo not drawn) [DPA-023, 4-(2-(2-(3,4,5-tri(n-dodecyloxy)-benzamido)-ethoxy)-ethoxy)-benzhydrylamine]
  solubility in DMSO: <5%
  solubility in MeOH: <5%
  solubility in DMF: >30%
  solubility in Heptane: >50%
  solubility in i-PrOAc: >50%
  solubility in MTBE: >50%

## CCCCCCCCCCCCCOc1cc(C(=O)N(C)CCOc2ccc(C(N)c3ccccc3)cc2)cc(OCCCCCCCCCCCCC)c1OCCCCCCCCCCCCC (stereo not drawn) [DPA-026, 4-(2-(N′-methy-3,4,5-tri(isomeric tridecyloxy)-benzamido)-ethoxy)-benzhydrylamine]
  solubility in DMSO: <1%
  solubility in MeOH: <1%
  solubility in DMF: >100%
  solubility in Heptane: >50%
  solubility in i-PrOAc: >100%
  solubility in MTBE: >100%

## CCCCCCCCCCCCCOc1ccc(CN(CCOCCOc2ccc(C(N)c3ccccc3)cc2)C(C)=O)cc1OCCCCCCCCCCCCC (stereo not drawn) [DPA-027]
  solubility in DMSO: <1%
  solubility in MeOH: <1%
  solubility in DMF: >75%
  solubility in Heptane: >50%
  solubility in i-PrOAc: >75%
  solubility in MTBE: >75%

## CCCCCCCCCCCCCOc1ccc(CN(CCOCCOc2ccc(C(N)c3ccccc3)cc2)C(=O)CC(C)CC(C)(C)C)cc1OCCCCCCCCCCCCC (stereo not drawn) [DPA-028]
  solubility in DMSO: <1%
  solubility in MeOH: <1%
  solubility in DMF: >100%
  solubility in Heptane: >100%
  solubility in i-PrOAc: >100%
  solubility in MTBE: >100%

## CCCCCCCCCCCCCOc1ccc(CN(CCOCCOc2ccc(C(N)c3ccccc3)cc2)C(=O)c2cc(OCCCCCCCCC)c(OCCCCCCCCC)c(OCCCCCCCCC)c2)cc1OCCCCCCCCCCCCC (stereo not drawn) [DPA-029]
  solubility in DMSO: <1%
  solubility in MeOH: <1%
  solubility in DMF: >100%
  solubility in Heptane: >100%
  solubility in i-PrOAc: >100%
  solubility in MTBE: >100%

## CCCCCCCCCCCCCOc1ccc(CN(CC(=O)NCCOCCOc2ccc(C(N)c3ccccc3)cc2)C(=O)CC(C)CC(C)(C)C)cc1OCCCCCCCCCCCCC (stereo not drawn) [DPA-030, 4-(2-(2-(2-(N″-3,4-di(isomeric tridecyloxy)-benzyl)-isononanoamido)-acetamido)-ethoxy)-ethoxy-benzhydrylamine]
  solubility in DMSO: <1%
  solubility in MeOH: <1%
  solubility in DMF: >40%
  solubility in Heptane: >40%
  solubility in i-PrOAc: >40%
  solubility in MTBE: >40%

## CCCCCCCCCCCCCOc1ccc(CN(CC(=O)NCCOCCOc2ccc(C(N)c3ccccc3)cc2)C(=O)c2cc(OCCCCCCCCC)c(OCCCCCCCCC)c(OCCCCCCCCC)c2)cc1OCCCCCCCCCCCCC (stereo not drawn) [DPA-031, 4-(2-(2-(2-(N″-3,4-di(isomeric tridecyloxy)-benzyl)-3,4,5-tri(isononyloxy)-benzamido)-acetamido)-ethoxy)-ethoxy-benzhydrylamine]
  solubility in DMSO: <1%
  solubility in MeOH: <1%
  solubility in DMF: >100%
  solubility in Heptane: >50%
  solubility in i-PrOAc: >100%
  solubility in MTBE: >100%

Reference: US12172946B2, “Compound containing diphenylmethane structure and use thereof” (GUANGZHOU TROJAN PHARMATEC LTD., priority 2019, dated 2024)
